Source: patent US20100010024A1, “USE OF1,4-DIARYL-DIHYDROPYRIMIDINE-2-ON DERIVATIVES FOR TREATING PULMONARY ARTERIAL HYPERTENSION” (Bayer Healthcare AG, priority 2006, published 2010)

Molecular target: T1, human neutrophil elastase (HNE) (Homo sapiens, UniProt P08246)
T1 construct: purchased Serva, Heidelberg
T1 sequence (P08246 30-267): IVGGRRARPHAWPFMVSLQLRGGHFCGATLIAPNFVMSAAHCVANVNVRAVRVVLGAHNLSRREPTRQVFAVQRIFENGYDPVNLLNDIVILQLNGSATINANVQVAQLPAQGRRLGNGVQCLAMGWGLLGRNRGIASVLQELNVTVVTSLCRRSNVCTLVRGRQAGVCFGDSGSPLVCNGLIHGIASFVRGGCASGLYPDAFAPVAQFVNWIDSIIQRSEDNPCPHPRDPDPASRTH
Assay: In vitro HNE inhibition assay
Format: biochemical
Conditions: 80 pM HNE, 20 μM MeOSuc-Ala-Ala-Pro-Val-AMC, 37° C., 2 hours, fluorescence
Experimental: B-1. In vitro HNE Inhibition Assay
The potency of the compounds of the invention is ascertained in an in vitro inhibition assay. The HNE-mediated amidolytic cleavage of a suitable peptide substrate leads in this connection to an increase in the fluorescent light. The signal intensity of the fluorescent light is directly proportional to the enzyme activity.
Enzyme (80 pM HNE; from Serva, Heidelberg) and substrate (20 μM MeOSuc-Ala-Ala-Pro-Val-AMC; from Bachem, Weil am Rhein) are incubated in an assay volume of in total 50 μl of assay buffer (0.1 M HEPES pH 7.4, 0.5 M NaCl, 0.1% w/v BSA, 1% v/v DMSO) in a 384-well microtiter plate in the presence and absence of the test substance at 37° C. for 2 hours. […] The IC50 values are determined by plotting the intensity of the fluorescent light against the active substance concentration.

| SMILES | IC50 |
| --- | --- |
| CCOC(=O)C1=C(C)N(c2cccc(C(F)(F)F)c2)C(=O)N(CC(=O)N(C)C)[C@@H]1c1ccc(C#N)cc1 [Example 30, Ethyl(4R)-4-(4-cyanophenyl)-3-[2-(dimethylamino)-2-oxoethyl]-6-methyl-2-oxo-1-[3-(trifluoromethyl)phenyl]-1,2,3,4-tetrahydropyrimidine-5-carboxylate] | 0.4 nM |
| CC1=C(C(=O)OCCO)[C@@H](c2ccc(C#N)cc2)N(CC(N)=O)C(=O)N1c1cccc(C(F)(F)F)c1 [Example 29] | 1.4 nM |
| CC1=C(C(=O)C(C)C)[C@@H](c2ccc(C#N)cc2)N(CC(=O)O)C(=O)N1c1cccc(C(F)(F)F)c1 [Example 16, [(6R)-6-(4-Cyanophenyl)-5-isobutyryl-4-methyl-2-oxo-3-[3-(trifluoromethyl)phenyl]-3,6-dihydropyrimidin-1(2H)-yl]acetic acid] | 2.9 nM |
| CC(=O)C1=C(C)N(c2cccc(C(F)(F)F)c2)C(=O)N(Cc2ccc(C(=O)O)cc2)[C@@H]1c1ccc(C#N)cc1 [Example 18, 4-{[(6R)-5-Acetyl-6-(4-cyanophenyl)-4-methyl-2-oxo-3-[3-(trifluoromethyl)phenyl]-3,6-dihydropyrimidin-1(2H)-yl]methyl}benzoic acid] | 2.9 nM |

Further compounds by falling IC50, results first:

| IC50 | SMILES |
| --- | --- |
| 14.8 nM | CC1=C(C(=O)C2CCC2)[C@@H](c2ccc(C#N)cc2)NC(=O)N1c1cccc(C(F)(F)F)c1 [Example 3, 4-{(4R)-5-(Cyclobutylcarbonyl)-6-methyl-2-oxo-1-[3-(trifluoromethyl)phenyl]-1,2,3,4-tetrahydropyrimidin-4-yl}benzonitrile] |
| 5.5 nM | CC(=O)C1=C(C)N(c2cccc(C(F)(F)F)c2)C(=O)N(CC(N)=O)[C@@H]1c1ccc(C#N)cc1 [Example 21, 2-[(6R)-5-Acetyl-6-(4-cyanophenyl)-4-methyl-2-oxo-3-[3-(trifluoromethyl)phenyl]-3,6-dihydropyrimidine-1(2H)-yl]acetamide] |
| 5.2 nM | CC(=O)C1=C(C)N(c2ccc(F)c(C(F)(F)F)c2)C(=O)N[C@@H]1c1ccc(C#N)cc1 [Example 7, 4-{(4R)-5-Acetyl-1-[4-fluoro-3-(trifluoromethyl)phenyl]-6-methyl-2-oxo-1,2,3,4-tetrahydropyrimidin-4-yl}benzonitrile] |
| 4.3 nM | CC1=C(C(=O)C2CCC2)[C@@H](c2ccc(C#N)cc2)N(CC(=O)O)C(=O)N1c1cccc(C(F)(F)F)c1 [Example 8, [(6R)-6-(4-Cyanophenyl)-5-(cyclobutylcarbonyl)-4-methyl-2-oxo-3-[3-(trifluoromethyl)phenyl]-3,6-dihydropyrimidin-1(2H)-yl]acetic acid] |
| 3.9 nM | CC(=O)C1=C(C)N(c2cccc(C(F)(F)F)c2)C(=O)N(Cc2cccc(C(=O)O)c2)[C@@H]1c1ccc(C#N)cc1 [Example 17, 3-{[(6R)-5-Acetyl-6-(4-cyanophenyl)-4-methyl-2-oxo-3-[3-(trifluoromethyl)phenyl]-3,6-dihydropyrimidin-1(2H)-yl]methyl}benzoic acid] |
